Assays:
skin pH = assay: Test I: duration of skin pH changes; format: in vivo, human (volunteer subjects); conditions: text to Test I
Procedure: Tests were performed on volunteer subjects using the procedures, conditions and ingredients substantially as described in connection with Test F above, while employing the proportion of active acidic ingredients indicated.

hair-loss = assay: Hair-loss prevention efficacy of minoxidil combined with the two-component acid system (preliminary data); format: in vivo

## O=C(O)C(O)C(O)C(=O)O (stereo not drawn) [(+)tartaric acid]
Skin pH
  duration of impact on skin pH changes: 2 hours

## Nc1cc(N2CCCCC2)nc(N)[n+]1[O-] [minoxidil]
hair-loss
  efficacy of minoxidil in combination (in words): enhanced by combination with the inventive two-component acid system

## O=C(O)c1ccccc1O [salicylic acid, 2-hydroxybenzoic acid]
other
  water solubility (in words): only moderately or sparingly water soluble
Text to Test I
  water solubility: less than 1 g. in 5 ml. of water
